This is an account of results in patent publication US20220324835A1 (Nurix Therapeutics, Inc., priority 2018, published 2022).

One test has as its target Cbl-b (residues 36-427) (Homo sapiens, UniProt Q13191). The experiment in a line: Cbl-b binding assay (SPR, Biacore T200). As to conditions: 20° C., 1:1 binding model. How it is done:
SPR data was collected on a Biacore T200 (GE Healthcare) using a NeutrAvidin (Invitrogen) capture surface that was generated on a polycarboxylate hydrogel sensor chip of medium charge density (XanTec Bioanalytics GmbH) at 20° C. The surface was prepared using 20 mM HEPES, pH 7.5, 100 mM NaCl, 0.5 mM TCEP, 0.01% Triton X-100 as the immobilization buffer. Neutravidin was coupled to the sensor chip through EDC/NHS amine coupling. All steps were performed using a flow rate of 10 μl/min. First, the chip was preconditioned with a 3-min injection of 1 M NaCl, 0.1 M Borate followed by a 10-min equilibration in immobilization buffer. The surface was activated by a 5-min injection of 100 mM EDC/50 mM NHS. Next, 250 μg/mL NeutrAvidin buffered in 10 mM sodium acetate buffer, pH 5.0 was injected over the surface for 2 min. The surface was deactivated with 1 M Tris, pH 8.5 for 7 min then re-equilibrated in immobilization buffer for 7 min. […] Flow cell 1 served as a reference surface and was prepared without protein. All binding measurements were made in 20 mM HEPES, pH 7.5, 100 mM NaCl, 0.5 mM TCEP, 0.01% Triton X-100, 2% DMSO (referred as assay buffer) at 20° C. Compounds, prepared in assay buffer, were diluted from atop concentration of either 100 μM or 50 μM using either a 2- or 3-fold dilution scheme containing 8 or 10 points. Samples were injected for 50 s at 50 μl/min. Dissociation time varied from 90-180 s, depending on anticipated potency. The surface was regenerated by injection of 0.3 M NaCl, prepared in assay buffer for 20 s at 10 μl/min. Positive and negative control samples were run between each compound to monitor surface integrity.
Column marked with an asterisk (*) were tested as described above with assay buffer containing 50 mM NaCl instead of 100 mM NaCl and 30 nM Src kinase instead of 60 nM Src kinase. The resulting data for the Cbl-b binding assay was solvent corrected and double referenced prior to analysis. All data were globally fit to a steady-state affinity and kinetic binding model where applicable). Fit parameters were derived from a 1:1 binding model using the Biacore T200 Evaluation Software V2.0 (GE Healthcare) (Table 2).

Test [1] addresses T1, Cbl-b (Homo sapiens, UniProt Q13191). The test is described as follows: Cbl-b activity assay (Cbl-b inhibition assay), TR-FRET of Cbl-b interaction with UbcH5B-Ub. In kind it is biochemical. The procedure, abridged:
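UbcH5B (C85K) conjugated to N-terminally Bodipy-Fluorescein-labeled ubiquitin served as the fluorescent partner. After compound preincubation, Src kinase (60 nM) with 1 mM ATP and 5 mM MgCl2 (final) was added for 1.5 h, followed by a further 1 h incubation. Some values were obtained with 50 mM NaCl and 30 nM Src.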
(Time-resolved FRET reads energy transfer from a long-lived donor to a nearby acceptor.)

Test [2] has as its system T-cell. The experiment in a line: IL-2 secretion from T-cells co-stimulated with anti-CD3 and anti-CD28 antibody (Biological Example 2). It counts as cell-based, human. As to conditions: Homo sapiens, T-cell, fold change over baseline (anti-CD3/anti-CD28 stimulated T-cells without inhibitor), read-out: IL-2 secretion Anti-CD3/Anti-CD28 stimulation; for fold induction at 0.3 µM: 0.3 μM Cbl-b inhibitor; for fold induction at 1 µM: 1 μM Cbl-b inhibitor. The procedure, abridged:
(§1)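 T-cells were stimulated with anti-CD3 antibody alone or with anti-CD28 antibody, in the presence or absence of Cbl-b inhibitor. IL-2 secretion or CD25 surface staining was measured, and values expressed as fold over the uninhibited baseline […].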

Test [3] concerns T-cell. The test is described as follows: CD25 cell surface staining on T-cells co-stimulated with anti-CD3 and anti-CD28 antibody (Biological Example 2). In kind it is cell-based, human. The settings on record: Homo sapiens, T-cell, fold change over baseline (anti-CD3/anti-CD28 stimulated T-cells without inhibitor), read-out: CD25 staining Anti-CD3/Anti-CD28 stimulation; for fold induction at 0.3 µM: 0.3 μM Cbl-b inhibitor; for fold induction at 1 µM: 1 μM Cbl-b inhibitor. The procedure, abridged:
as §1

The test system of test [4] is T-cell. The experiment in a line: IL-2 secretion from T-cells stimulated with anti-CD3 antibody alone (Biological Example 2). As to conditions: Homo sapiens, T-cell; 1 μM Cbl-b inhibitor; fold change over baseline (anti-CD3/anti-CD28 stimulated T-cells without inhibitor); read-out: IL-2 secretion Anti-CD3 stimulation. It counts as cell-based, human.
Test [5] has as its system T-cell. The experiment in a line: CD25 cell surface staining on T-cells stimulated with anti-CD3 antibody alone (Biological Example 2). It counts as cell-based, human. The settings on record: Homo sapiens, T-cell; 1 μM Cbl-b inhibitor; fold change over baseline (anti-CD3/anti-CD28 stimulated T-cells without inhibitor); read-out: CD25 staining Anti-CD3 stimulation.
Test [6] deals with T1, Cbl-b. The test is described as follows: Cbl-b inhibition assay (Cbl-b activity assay, FRET, Biological Example 1; 100 mM NaCl, 60 nM Src kinase). It counts as biochemical. As to conditions: upper bound stated in text lists; read-out: IC50 values in the Cbl-b inhibition assay of Biological Example 1. The procedure, abridged:
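Here, the E2 UbcH5B, irreversibly linked to Bodipy-fluorescein ubiquitin, binds Cbl-b once Src kinase phosphorylates it; Cbl-b carries an N-terminal biotinylated Avi-tag captured by streptavidin-terbium. An absent FRET signal indicates inhibition.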

The mark [7] stands for this setting: assay buffer with 100 mM NaCl, 60 nM Src kinase, read-out: Cbl-b activity IC50.
Setting [8] is: * assay buffer containing 50 mM NaCl instead of 100 mM NaCl and 30 nM Src kinase instead of 60 nM, read-out: Cbl-b activity IC50 (μM)*.

T1 sequence (Q13191 36-427): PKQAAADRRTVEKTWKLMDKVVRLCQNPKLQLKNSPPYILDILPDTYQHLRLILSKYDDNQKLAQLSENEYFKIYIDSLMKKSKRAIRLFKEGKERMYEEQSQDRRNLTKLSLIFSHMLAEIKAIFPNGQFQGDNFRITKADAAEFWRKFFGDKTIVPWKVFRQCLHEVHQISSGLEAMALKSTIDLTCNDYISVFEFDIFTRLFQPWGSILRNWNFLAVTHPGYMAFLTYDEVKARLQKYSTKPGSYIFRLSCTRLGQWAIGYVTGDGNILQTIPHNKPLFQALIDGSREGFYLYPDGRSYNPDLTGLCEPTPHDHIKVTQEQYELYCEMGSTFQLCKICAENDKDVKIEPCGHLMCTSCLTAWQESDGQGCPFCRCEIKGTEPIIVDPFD
Chain of Cbl-b (residues 36-427) (Q13191 36-427): as above

A word on the Kd: it is the equilibrium constant for the complex coming apart. The low end stands for tighter binding, the high end for weaker binding. As a reminder, the IC50 is the concentration that gives 50% inhibition. As to `C[C@@H](c1cccc(N2Cc3c(cccc3C(F)(F)F)C2=O)c1)[C@@H](F)c1nncn1C` (single isomer, unassigned) [Compound 474a], at Cbl-b (residues 36-427), the Kd was 0.1 to 0.3 µM. For the same compound, the IC50 on Cbl-b [1] (setting [7]) is < 0.1 µM.

On Cbl-b (residues 36-427), `CC(Sc1nncn1C)c1cccc(NC(=O)c2cnc3ccccc3n2)c1` (stereo not shown) [Compound 17, N-(3-(1-((4-Methyl-4H-1,2,4-triazol-3-yl)thio)ethyl)phenyl)quinoxaline-2-carboxamide] displayed a Kd of 3 to 10 µM. On Cbl-b [1] (setting [8]), the IC50 fell in the range of 3 to 10 µM.

As to `C[C@H](Sc1nncn1C)c1cccc(NC(=O)c2cccc(C(F)(F)F)c2)c1` [Compound 29, (S)-N-(3-(1-((4-Methyl-4H-1,2,4-triazol-3-yl)thio)ethyl)phenyl)-3-(trifluoromethyl)benzamide], at Cbl-b (residues 36-427), the Kd is > 10 µM. The IC50 on Cbl-b [1] (setting [8]) is 3 to 10 µM.

Take `CC(C)c1cccc(C(=O)Nc2cccc([C@H](C)Sc3nncn3C)c2)c1` [Compound 31, (S)-3-Isopropyl-N-(3-(1-((4-methyl-4H-1,2,4-triazol-3-yl)thio)ethyl)phenyl)benzamide]: at Cbl-b (residues 36-427), the Kd was > 10 µM. In addition, the half-maximal inhibitory concentration (IC50) on Cbl-b [1] (setting [8]) lay within 3 to 10 µM.

As to `CC(Sc1nncn1C)c1ccc(F)c(NC(=O)c2ccc3ccccc3n2)c1` (stereo not shown) [Compound 96, N-[2-fluoro-5-[1-[(4-methyl-1,2,4-triazol-3-yl)sulfanyl]ethyl]phenyl]quinoline-2-carboxamide], the Kd at Cbl-b (residues 36-427) is > 10 µM. For the same compound, the IC50 on Cbl-b [1] (setting [8]) lay within 3 to 10 µM.

Compound `COCC(Sc1nncn1C)c1cccc(NC(=O)c2cccc(C(F)(F)F)n2)c1` (stereo not shown) [Compound 133, N-[3-[2-methoxy-1-[(4-methyl-1,2,4-triazol-3-yl)sulfanyl]ethyl]phenyl]-6-(trifluoromethyl)pyridine-2-carboxamide] returned a Kd on Cbl-b (residues 36-427) of 3 to 10 µM. Moreover, the IC50 at Cbl-b [1] (setting [8]) lay within 3 to 10 µM.

Take `CCC(Sc1nncn1C)c1cccc(NC(=O)c2ccc3ccccc3n2)c1` (stereo not shown) [Compound 136, N-[3-[1-[(4-methyl-1,2,4-triazol-3-yl)sulfanyl]propyl]phenyl]quinoline-2-carboxamide]: the Kd on Cbl-b (residues 36-427) is 3 to 10 µM. The IC50 on Cbl-b [1] (setting [8]) was in the range of 3 to 10 µM.

Turning to `CCC(Sc1nncn1C)c1cccc(NC(=O)c2cc3ccccc3cn2)c1` (stereo not shown) [Compound 137, N-[3-[1-[(4-methyl-1,2,4-triazol-3-yl)sulfanyl]propyl]phenyl]isoquinoline-3-carboxamide], the Kd at Cbl-b (residues 36-427) was 3 to 10 µM. Further, the IC50 on Cbl-b [1] (setting [8]) lay within 3 to 10 µM.

Regarding `Cn1cnnc1CC1(c2cccc(N3Cc4c(cc(C(O)c5ccccc5)cc4C(F)(F)F)C3=O)c2)COC1` (stereo not shown) [Example 697, 6-(hydroxy(phenyl)methyl)-2-(3-(3-((4-methyl-4H-1,2,4-triazol-3-yl)methyl)oxetan-3-yl)phenyl)-4-(trifluoromethyl)isoindolin-1-one], the fold induction at 0.3 µM was 5 to 7.5 with T-cell [2] and 1.31 to 1.5 with T-cell [3]. Also, the fold induction at 1 µM is > 7.5 with T-cell [2], 1.31 to 1.5 in the test with T-cell [3], > 0.201 in the test with T-cell [4] and > 1 in the test with T-cell [5]. Also, the IC50 was < 0.1 µM on Cbl-b [1] (setting [7]) and ≤ 0.1 µM at Cbl-b [6].

Regarding `Cc1cc(C(=O)Nc2cc(C3CC3)cc(C3(Cc4nncn4C)COC3)c2)nc(C2CC2)n1` [Example 698, 2-cyclopropyl-N-(3-cyclopropyl-5-(3-((4-methyl-4H-1,2,4-triazol-3-yl)methyl)oxetan-3-yl)phenyl)-6-methylpyrimidine-4-carboxamide], the fold induction at 0.3 µM with T-cell [2] lay in the range of 2.51 to 5; in the test with T-cell [3], 1.01 to 1.3. Besides, the fold induction at 1 µM in the test with T-cell [2] was > 7.5; in the test with T-cell [3], 1.31 to 1.5; in the test with T-cell [4] it was > 0.201; in the test with T-cell [5], > 1. The IC50 at Cbl-b [1] (setting [7]) is < 0.1 µM; on Cbl-b [6], ≤ 0.1 µM.

Turning to `Cn1cnnc1CC1(c2cccc(NC(=O)c3cc(CN4CC[C@H](F)C4)nc(C(F)(F)F)n3)c2)COC1` [Example 699, (S)-6-((3-fluoropyrrolidin-1-yl)methyl)-N-(3-(3-((4-methyl-4H-1,2,4-triazol-3-yl)methyl)oxetan-3-yl)phenyl)-2-(trifluoromethyl)pyrimidine-4-carboxamide], the fold induction at 0.3 µM lay in the range of 1.01 to 2.5 in the test with T-cell [2] and 1.01 to 1.3 in the test with T-cell [3]. In addition, the fold induction at 1 µM with T-cell [2] was in the range of 2.51 to 5; in the test on T-cell [3] it was 1.01 to 1.3; with T-cell [4], 0.051 to 0.1; in the test on T-cell [5] it was 0.801 to 1. The IC50 is < 0.1 µM at Cbl-b [1] (setting [7]) and ≤ 0.1 µM at Cbl-b [6].

For `Cn1cnnc1OC1(c2cccc(N3Cc4c(cc(CN5CCC(F)CC5)cc4C(F)(F)F)C3=O)c2)COC1` [Example 700, 6-((4-fluoropiperidin-1-yl)methyl)-2-(3-(3-((4-methyl-4H-1,2,4-triazol-3-yl)oxy)oxetan-3-yl)phenyl)-4-(trifluoromethyl)isoindolin-1-one], the figures for the fold induction at 0.3 µM in the test on T-cell [2] and with T-cell [3] were 1.01 to 2.5 and 1.01 to 1.3, respectively. Besides, the fold induction at 1 µM in the test with T-cell [2] is 2.51 to 5; with T-cell [3], 1.31 to 1.5; in the test on T-cell [4], < 0.05; in the test on T-cell [5], 0.601 to 0.8. The IC50 at Cbl-b [1] (setting [7]) was 0.1 to 0.3 µM; on Cbl-b [6] it was ≤ 0.3 µM.

For the compound `COc1cccc2c1CN(Cc1cc3c(c(C(F)(F)F)c1)CN(c1cccc(C4(Cc5nncn5C)COC4)c1)C3=O)C2` [Example 702, 6-((4-methoxyisoindolin-2-yl)methyl)-2-(3-(3-((4-methyl-4H-1,2,4-triazol-3-yl)methyl)oxetan-3-yl)phenyl)-4-(trifluoromethyl)isoindolin-1-one], the fold induction at 0.3 µM in the test on T-cell [2] fell in the range of 5 to 7.5; with T-cell [3] it was 1.51 to 1.75. For the same compound, the fold induction at 1 µM is > 7.5 in the test on T-cell [2], 1.51 to 1.75 with T-cell [3], > 0.201 in the test with T-cell [4] and > 1 in the test on T-cell [5]. The IC50 is < 0.1 µM on Cbl-b [1] (setting [7]) and ≤ 0.1 µM on Cbl-b [6].

In the case of `Cn1cnnc1CC1(c2cccc(N3Cc4c(cc(CN5CCOC6(CCC6)C5)cc4C(F)(F)F)C3=O)c2)COC1` [Example 703, 6-((5-oxa-8-azaspiro[3.5]nonan-8-yl)methyl)-2-(3-(3-((4-methyl-4H-1,2,4-triazol-3-yl)methyl)oxetan-3-yl)phenyl)-4-(trifluoromethyl)isoindolin-1-one], the figures for the fold induction at 0.3 µM in the test on T-cell [2] and with T-cell [3] were > 7.5 and 1.01 to 1.3, respectively. For the same compound, the fold induction at 1 µM in the test on T-cell [2] is > 7.5; in the test with T-cell [3], 1.01 to 1.3; in the test on T-cell [4] it was > 0.201; with T-cell [5] it was > 1. The IC50 is < 0.1 µM at Cbl-b [1] (setting [7]) and ≤ 0.1 µM at Cbl-b [6].
